Legend:
[1] = system: senescent foreskin cells; test: Survival of senescent human cells treated with supernatant (secreted fluid) from death-induced cells, Example 13; assay type: cell-based; conditions: Table 8; supernatant from dying senescent cells treated at 30, 90 or 270 μM (as Example 11); senescent treated cells
Description: After 3 days, cell viability was measured using CellTiter-Glo Luminescent Cell Viability Assay (Promega) or light microscopy.
During this additional culture, by checking with an optical microscope, etc., the medium supernatants containing secreted fluid from normally proliferating and senescent cells in which cell death was induced were obtained. The obtained medium supernatant was replaced with the medium of normally proliferating and senescent cells, respectively, and cell survival rate was measured after 3 days.

[2] = system: bleomycin-induced pulmonary fibrosis mice; test: Bleomycin-induced pulmonary fibrosis mice, Example 31, Table 56; assay type: in vivo, mouse; conditions: untreated = 100%
Outline: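 After treatment with test compound or vehicle alone, lungs of bleomycin-induced pulmonary fibrosis mice were harvested. Total RNA extracted and gene expression quantified by qRT-PCR.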

[3] = system: carbon tetrachloride-induced liver fibrosis mice; test: Carbon tetrachloride-induced liver fibrosis mice, Example 31, Table 57; assay type: in vivo, mouse; conditions: CCl4-induced liver fibrosis mice, untreated = 100%
Outline: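 Mice with induced hepatic fibrosis received either the test compound or, as controls, an equal volume of vehicle solution alone. Once dosing ended, liver tissue was harvested and total RNA was isolated. cDNA was synthesized from this RNA, and quantitative RT-PCR was run on it to measure hepatic mRNA levels of the fibrosis- and senescence-related genes.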

[4] = system: naturally aged mice; test: Anti-aging evaluation in naturally aged mice, Example 31, Table 55; assay type: in vivo, mouse; conditions: for Femur Ctsk mRNA / Kidney Agtr1a mRNA / Liver IL6 mRNA / Liver MMP3 mRNA / Liver p16 mRNA / Open Field Test Time in Center: untreated = 100%; for Heart Sur2a mRNA / Joint Col2a1 mRNA / Skin Col1a1 mRNA / Skin SDF1 mRNA: untreated = 1.0; for Muscle Mass: untreated 0.64 g; for Fat Mass: untreated 0.82 g; for Cataract incidence: untreated 83%;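 for all read-outs here: Vehicle-dosed control mice received solution alone at matching volume, values compare test-compound-treated aged mice against that control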
Description: After the end of drug administration, the method described in each example below was performed. […] The mRNA amounts of p16, MMP3, and IL6 after natural aging was induced were calculated as 100% and compared with the mRNA amounts of p16, MMP3, and IL6 after treatment with the test compound. In addition, an open field test for the analysis of aging-related frailty, agtr1a mRNA analysis for kidney damage and disease evaluation, col1a1 and SDF1 mRNA analysis for skin aging evaluation such as wrinkles/loss of elasticity/hyperpigmentation, col2a1 mRNA analysis for evaluating joint aging such as osteoarthritis, sur2a mRNA analysis for evaluating cardiac aging such as decreased cardiac load resistance, ctsk mRNA analysis for evaluating bone diseases due to aging such as osteoporosis, muscle tissue weight for analyzing sarcopenia, fat tissue weight for analyzing lipoatrophy, and cataract incidence analysis were performed in mice. For cataract incidence analysis, the drug was administered twice a week under the conditions specified above, and biweekly examinations were conducted until death.

[5] = system: HMGN1 secreted from senescent A549 cells; test: HMGN1 secretion (ELISA) from senescent A549 cancer cells, Example 12; assay type: cell-based, human; conditions: senescent untreated = 100%; 30 μM; 90 μM for LX-305, 905, 1302, 1601, 1603, 2003, 2702, 2901, 3106; 270 μM for LX-1103, 2005, 2007;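 note: A549 cells made senescent by doxorubicin exposure, with DMSO-treated cells serving as the non-senescent control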
Description: Cells were treated with doxorubicin or control (DMSO) and cultured.

Row | SMILES | Survival [1] | Lung p16 mRNA [2] | Col1a1 mRNA [2] | Liver p16 mRNA [3] | Col1a1 mRNA [3] | Femur Ctsk mRNA [4] [%] | Heart Sur2a mRNA [4] [fold] | Joint Col2a1 mRNA [4] [fold] | Kidney Agtr1a mRNA [4] [%] | Liver IL6 mRNA [4] [%] | Liver MMP3 mRNA [4] [%] | Liver p16 mRNA [4] [%] | Open Field Test Time in Center [4] [%] | Skin Col1a1 mRNA [4] [Fold] | Skin SDF1 mRNA [4] [fold] | Muscle Mass [4] [g] | Fat Mass [4] [g] | Cataract incidence [4] [%] | HMGN1 [5] [%]
1 | CCc1nc(C(N)=O)c(Nc2ccc(N3CCC(N4CCN(C)CC4)CC3)c(OC)c2)nc1NC1CCOCC1 [LX-3303, Gilteritinib] | 53.5 | 68 (±6.9) % | 78 (±5.1) % | 62 (±4.9) % | 65 (±6.2) % | 76 | 1.9 | 2.1 | 69 | 83 | 73 | 63 | 186 | 1.2 | 1.7 | 0.72 | 1.08 | 61 | 239
2 | CC/C=C\C/C=C\C/C=C\C/C=C\C/C=C\C/C=C\CCC(=O)O [LX-2702, Docosahexaenoic acid] | 68.6 | 53 (±2.8) % | 43 (±5.9) % | 46 (±3.2) % | 53 (±6.1) % | 50 | 2.3 | 2.8 | 57 | 54 | 73 | 80 | 211 | 1.8 | 2.7 | 0.72 | 1.13 | 66 | 237
3 | NCC(=O)CCC(=O)O [LX-1103, 5-Aminolevulinic acid] | 101.8 | 73 (±3.2) % | 76 (±5.3) % | 77 (±3.5) % | 60 (±6.9) % | 78 | 2.4 | 2.8 | 76 | 70 | 68 | 47 | 183 | 2.3 | 1.7 | 0.68 | 0.89 | 54 | 158
4 | O=C(O)c1cc(/N=N/c2ccc(S(=O)(=O)Nc3ccccn3)cc2)ccc1O [LX-1302, Sulfasalazine] | 98.5 | 41 (±1.5) % | 59 (±2.6) % | 52 (±4.4) % | 48 (±3.2) % | 75 | 2.3 | 2.5 | 62 | 48 | 47 | 55 | 201 | 2.4 | 1.8 | 0.70 | 0.92 | 73 | 147
5 | Cc1oncc1C(=O)Nc1ccc(C(F)(F)F)cc1 [LX-1603, Leflunomide] | 97.5 | 78 (±6.1) % | 48 (±2.5) % | 67 (±3.5) % | 54 (±2.9) % | 64 | 2.0 | 2.3 | 77 | 61 | 73 | 74 | – | 2.6 | 1.7 | 0.69 | 0.92 | 78 | 163
6 | O=C(NCc1ccncc1)C12CC3CC(C1)CC(c1ccc(Cl)cc1)(C3)C2 [LX-3106, Opaganib] | 72.6 | 67 (±4.3) % | 77 (±3.7) % | 81 (±6.5) % | 71 (±5.4) % | 76 | 1.6 | 2.0 | 83 | 71 | 85 | 76 | 193 | 1.3 | 1.3 | 0.72 | 0.88 | 71 | 236
7 | CCn1c(C#CCNc2ccccc2)cc2cc(CNC)ccc21 [LX-905] | 46.5 | 67 (±5.5) % | 59 (±13.3) % | 76 (±6.0) % | 71 (±7.5) % | 62 | 2.4 | 2.3 | 52 | 38 | 76 | 67 | 241 | 2.0 | 1.5 | 0.69 | 1.08 | 65 | 217

Reference: US20260306460A1, “COMPOSITION FOR REMOVING AND INHIBITING SENESCENT CELLS, AND USES THEREOF” (LIFECEUTIX CO., LTD., priority 2023, published 2026)
